Key:
CSNK2A1 = target: T1, CSNK2A1 (Homo sapiens, UniProt P68400); assay: NanoBRET assay CSNK2A1; type: cell-based; conditions: HEK293 cells, singlicate, read-out: CSNK2A1 pIC50 (converted)
T1 construct: expressed in transfected cells; host or cells: HEK293
Protocol: Assays were run using a modified version of the previously published protocols. […] A transfection complex of DNA (10 μg/mL) was generated consisting of 9 μg/mL carrier DNA (Promega, Madison, WI, USA) and 1 μg/mL CSNK2A-NLuc fusion DNA in Opti-MEM without serum (Gibco). FuGENE HD (Promega) was added at 30 μL/mL to form a lipid–DNA complex. The solution was then mixed and incubated at room temperature for 20 min. The transfection complex was mixed with a 20× volume of HEK293 cells in DMEM/FBS to arrive at a final concentration of 200,000 cells/mL, and 100 μL/well was added to a 96-well plate that was incubated overnight at 37 °C and 5% CO2. The following day, the medium was removed via aspiration and replaced with 85 μL of Opti-MEM without phenol red. A total of 5 μL per well of 20× NanoBRET Tracer K10 (Promega) at 10 μM for CSNK2A1 or 5 μM for CSNK2A2 in Tracer Dilution Buffer (Promega N291B) was added to all wells, except the “no tracer” control wells. Test compounds (10 mM in DMSO) were diluted 100× in Opti-MEM media to prepare stock solutions and evaluated at 11 concentrations. A total of 10 μL per well of the 10-fold test compound stock solutions (final assay concentration of 0.1% DMSO) were added. […] The plates were read within 30 min on a GloMax Discover luminometer (Promega) equipped with a 450 nm BP filter (donor) and 600 nm LP filter (acceptor) using 0.3 s of integration time. […]

[1] = Snapshot (5 h) PK study with/without EA and 1-ABT; type: in vivo; conditions: male, CD-1, mouse, plasma, ip, 10 mg/kg, CD-1 mice, 10 mg/kg i.p.
Protocol: In the 5 h PK study investigating the effect of co-dosing EA and 1-ABT, two cohorts of male CD-1 mice (6–8 weeks old, 20–30 g) were dosed via intraperitoneal (i.p.) administration of compound 2 (10 mg/kg) as a 10 mL/kg volume of a 1.0 mg/mL solution in DMSO/PEG-400/saline (v/v/v, 10:30:60). EA (30 mg/kg) was administered i.p. as a 1.0 mL/kg volume of a 30 mg/mL solution in NMP/PEG-400/water (v/v/v, 10:60:30) as a 6 h pretreatment and again at the time of dosing with compound 2. 1-ABT (100 mg/kg) was administered p.o. as a 10 mL/kg volume of a 10 mg/mL solution in saline as a 2 h pretreatment. No co-treatment with EA or 1-ABT was applied to the first cohort. Co-treatment with EA (30 mg/kg) and 1-ABT (100 mg/kg) was applied in the second cohort. Two mice were dosed in each cohort. The mice had free access to water and food. Blood (0.03 mL) was collected from the dorsal metatarsal vein at 0.5, 1, 3, and 5 h time points. Each blood sample was transferred into a plastic microcentrifuge tube containing EDTA-K2 anticoagulant. Blood samples were centrifuged at 4000× g for 5 min at 4 °C to obtain plasma. The samples were stored in a freezer at −75 ± 15 °C prior to analysis. Plasma samples from the two mice from each cohort and each time point were pooled together for analysis. At 5 h post dose administration, the mice were anesthetized using increasing concentrations of CO2, and lung samples were collected. Lung samples were quickly frozen in an ice box and stored at −75 ± 15 °C. Prior to analysis, all lung samples were weighed and homogenized with phosphate-buffered saline (PBS) in a lung weight (g)/buffer volume (mL) ratio of 1:3. The final compound concentration was calculated by multiplying the detected concentration by a dilution factor of four.
Concentrations of the test compound in the plasma samples were determined using a Prominence LC-MS/MS system with a DGU-20A5R(C) degasser, LC-30AD pump, CBM-20A system controller, SIL-20AC HT autosampler; Rack changer II, HALO 90A ES-CN (2.7 μm, 2.1 × 50 mm) column, and AB Sciex Triple Quan 5500 LC/MS/MS instrument. The mobile phase was 5–95% MeCN in H2O, with 0.1% formic acid. The desired serial concentrations of working solutions were achieved by diluting the stock solution of the analyte with 50% acetonitrile in water. A series of 10 µL working solutions […] were added to 10 μL of blank plasma or lung homogenate to achieve calibration standards of 0.5, 1, 2, 5, 10, 50, 100, 500, 1000 ng/mL in a total volume of 20 μL. A total of 5 quality control samples at 1 ng/mL, 2 ng/mL, 5 ng/mL, 100 ng/mL, and 800 ng/mL were prepared independently of those used for the calibration curves in the same manner. A 20 μL standard, 20 μL QC sample, and 20 μL of an unknown sample (10 µL plasma or lung homogenate with 10 µL blank solution) were added to 200 μL of acetonitrile containing internal standard mixture for precipitating protein. Then, the samples were vortexed for 30 s. After centrifugation at 4 °C and 4000 rpm for 15 min, the supernatant was diluted with ultrapure water at a ratio of 1:2 (v/v, 1:2), then 20 µL of diluted supernatant was injected into the LC/MS/MS system for quantitative analysis. PK parameters were calculated from the mean plasma concentration versus time using a noncompartmental model in WinNonlin Phoenix version 8.3.

[2] = with both EA (30 mg/kg) and 1-ABT (100 mg/kg)

T1 sequence (P68400 whole entry): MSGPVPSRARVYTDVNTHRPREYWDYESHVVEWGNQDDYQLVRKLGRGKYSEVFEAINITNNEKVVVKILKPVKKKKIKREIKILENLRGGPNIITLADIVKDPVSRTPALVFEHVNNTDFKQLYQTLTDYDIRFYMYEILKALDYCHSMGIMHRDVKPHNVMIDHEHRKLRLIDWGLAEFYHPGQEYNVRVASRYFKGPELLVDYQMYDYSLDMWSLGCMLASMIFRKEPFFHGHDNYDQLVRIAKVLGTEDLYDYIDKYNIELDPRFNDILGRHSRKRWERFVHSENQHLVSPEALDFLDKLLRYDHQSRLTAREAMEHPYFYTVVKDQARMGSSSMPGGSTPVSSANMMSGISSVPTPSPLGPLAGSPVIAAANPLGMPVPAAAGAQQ

CCC(=O)Nc1cc(Nc2cc(NC3CC3)n3ncc(C#N)c3n2)c(F)cc1N1CCC[C@H](NC)C1 [Compound 2, (S)-N-(5-((3-cyano-7-(cyclopropylamino)pyrazolo[1,5-a]pyrimidin-5-yl)amino)-4-fluoro-2-(3-(methylamino)piperidin-1-yl)phenyl)propionamide]
IC50 (CSNK2A1): 7.94 nM | AUC(0-t) ([1]; no co-treatment): 7.77 µM·h | Cmax ([1]; no co-treatment): 3.19 µM | half-life ([1]; no co-treatment): 2.5 h | AUC(0-t) [1, 2]: 10.1 µM·h | Cmax [1, 2]: 3.15 µM | half-life [1, 2]: 3.7 h

From article PMC11397024, “Strategic Fluorination to Achieve a Potent, Selective, Metabolically Stable, and Orally Bioavailable Inhibitor of CSNK2” (Molecules, 2024)
